From PMC4984525 (Cancer, 2011)

Assays:
[1] = system: patients with advanced or refractory myeloid leukemias; assay: Phase 1 dose-escalation: safety, DLT and MTD; assay type: in vivo
[2] = Plasma pharmacokinetics of ARRY-520; assay type: in vivo, human; details: for coefficient of variation (CV) for CL: inter-patient variability; for AUC(0-t) / clearance / Cmax / MRT / Tmax / Vd / half-life: human, plasma, intravenous; for MRT / Tmax / half-life: median (min-max); for Vd: mean (%CV)

With `CON(C)C(=O)N1N=C(c2cc(F)ccc2F)S[C@@]1(CCCN)c1ccccc1` [ARRY-520] the “MTD, total dose” value ([1]; Schedule 2 (Days 1, 3 and 5)) was 4.5 mg/m^2, the “died within 30 days following discontinuation of ARRY-520, %” value ([1]; all patients) was 17% and the “died within 30 days following discontinuation of ARRY-520, patients n” value ([1]; all patients) was 6. For the same compound, the “Grades 3 or 4 reversible drug-related myelosuppression, patients” value ([1]; human, in vivo) was 33/36, the “adverse events leading to discontinuation, % of patients” value ([1]; human, in vivo) was 8% and the “adverse events leading to discontinuation, patients n” value ([1]; human, in vivo) was 3. The “asymptomatic Grade 1 QTc prolongation, % of patients” value ([1]; human, in vivo) was 22%, the “asymptomatic Grade 1 QTc prolongation, patients n” value ([1]; human, in vivo) was 8 and the “asymptomatic Grade 2 QTc prolongation, % of patients” value ([1]; human, in vivo) was 3%. The “asymptomatic Grade 2 QTc prolongation, patients n” value ([1]; human, in vivo) was 1, the “drug-related SAE bacteremia, %” value ([1]; human, in vivo) was 3% and the “drug-related SAE diarrhea, %” value ([1]; human, in vivo) was 3%. For the same compound, the “drug-related SAE exfoliative rash, %” value ([1]; human, in vivo) was 3%, the “drug-related SAE hyperbilirubinemia, %” value ([1]; human, in vivo) was 3% and the “drug-related SAE neutropenic fever, %” value ([1]; human, in vivo) was 8%. The “drug-related SAE palmar-plantar erythrodysesthesia, %” value ([1]; human, in vivo) was 6%, the “drug-related SAE pancytopenia, %” value ([1]; human, in vivo) was 3% and the “drug-related SAE stomatitis, %” value ([1]; human, in vivo) was 3%. For the same compound, the “patients with one or more SAEs related to study drug, %” value ([1]; human, in vivo) was 28%, the “Dose-limiting toxicities (DLT)” value ([1]; in vivo) was “mucositis, exfoliative rash, hand-foot syndrome and hyperbilirubinemia” and the Neurotoxicity ([1]; in vivo) was “not observed”. The “other clinically significant ECG changes” value ([1]; in vivo) was “No other clinically significant ECG changes were observed”, the “coefficient of variation (CV) for CL” value ([2]; Schedule 1, Cycle 1) was 50.7% and the “coefficient of variation (CV) for CL” value ([2]; Schedule 1, Cycle 2) was 77.1%. For the same compound, the “time plasma concentrations maintained above 2 ng/mL” value ([2]; Schedule 1, following a single infusion, postinitiation of infusion, all cohorts) was “greater than 7 days”, the “time geometric mean plasma concentrations maintained above 2 ng/mL” value ([2]; Schedule 2, all cohorts) was “more than 14 days” and the “overall ratio of AUC0–24 on Day 5 compared to Day 1” value ([2]; Schedule 2, dosing at 48-hour intervals) was 2.23. For the same compound, the AUC(0-t) ([2]; 0.8 mg/m^2, AUC0–24, Schedule 2, Cycle 1 Day 1, 0.8 mg/m^2 (N=3), geometric mean (geometric %CV)) was 116 ng·h/mL, the AUC(0-t) ([2]; 0.8 mg/m^2, AUC0–24, Schedule 2, Cycle 1 Day 5, 0.8 mg/m^2 (N=3), geometric mean (geometric %CV)) was 179 ng·h/mL and the clearance ([2]; 0.8 mg/m^2, CL, Schedule 2, Cycle 1 Day 1, 0.8 mg/m^2 (N=3), geometric mean (geometric %CV)) was 109 mL/min. It also gave a clearance ([2]; 0.8 mg/m^2, CL, Schedule 2, Cycle 1 Day 5, 0.8 mg/m^2 (N=3), geometric mean (geometric %CV)) of 33.8 mL/min, a Cmax ([2]; 0.8 mg/m^2, Cmax, Schedule 2, Cycle 1 Day 1, 0.8 mg/m^2 (N=3), geometric mean (geometric %CV)) of 19.5 ng/mL and a Cmax ([2]; 0.8 mg/m^2, Cmax, Schedule 2, Cycle 1 Day 5, 0.8 mg/m^2 (N=3), geometric mean (geometric %CV)) of 25.3 ng/mL. For the same compound, the MRT ([2]; 0.8 mg/m^2, MRT, Schedule 2, Cycle 1 Day 5, 0.8 mg/m^2 (N=3)) was 130 h, the Tmax ([2]; 0.8 mg/m^2, Tmax, Schedule 2, Cycle 1 Day 1, 0.8 mg/m^2 (N=3)) was 1 h and the Tmax ([2]; 0.8 mg/m^2, Tmax, Schedule 2, Cycle 1 Day 5, 0.8 mg/m^2 (N=3)) was 1.08 h. The Vd ([2]; 0.8 mg/m^2, Vss, Schedule 2, Cycle 1 Day 1, 0.8 mg/m^2 (N=3)) was 295 L, the Vd ([2]; 0.8 mg/m^2, Vss, Schedule 2, Cycle 1 Day 5, 0.8 mg/m^2 (N=3)) was 193 L and the half-life ([2]; 0.8 mg/m^2, t1/2, Schedule 2, Cycle 1 Day 1, 0.8 mg/m^2 (N=3)) was 29.8 h. For the same compound, the half-life ([2]; 0.8 mg/m^2, t1/2, Schedule 2, Cycle 1 Day 5, 0.8 mg/m^2 (N=3)) was 92.5 h, the AUC(0-t) ([2]; 1.2 mg/m^2, AUC0–24, Schedule 2, Cycle 1 Day 1, 1.2 mg/m^2 (N=6), geometric mean (geometric %CV)) was 133 ng·h/mL and the AUC(0-t) ([2]; 1.2 mg/m^2, AUC0–24, Schedule 2, Cycle 1 Day 5, 1.2 mg/m^2 (N=6), geometric mean (geometric %CV)) was 320 ng·h/mL. For the same compound, the clearance ([2]; 1.2 mg/m^2, CL, Schedule 2, Cycle 1 Day 1, 1.2 mg/m^2 (N=6), geometric mean (geometric %CV)) was 130 mL/min, the clearance ([2]; 1.2 mg/m^2, CL, Schedule 2, Cycle 1 Day 5, 1.2 mg/m^2 (N=6), geometric mean (geometric %CV)) was 15.8 mL/min and the Cmax ([2]; 1.2 mg/m^2, Cmax, Schedule 2, Cycle 1 Day 1, 1.2 mg/m^2 (N=6), geometric mean (geometric %CV)) was 18.8 ng/mL. For the same compound, the Cmax ([2]; 1.2 mg/m^2, Cmax, Schedule 2, Cycle 1 Day 5, 1.2 mg/m^2 (N=6), geometric mean (geometric %CV)) was 24.3 ng/mL, the MRT ([2]; 1.2 mg/m^2, MRT, Schedule 2, Cycle 1 Day 5, 1.2 mg/m^2 (N=6)) was 134 h and the Tmax ([2]; 1.2 mg/m^2, Tmax, Schedule 2, Cycle 1 Day 1, 1.2 mg/m^2 (N=6)) was 1.09 h. It also gave a Tmax ([2]; 1.2 mg/m^2, Tmax, Schedule 2, Cycle 1 Day 5, 1.2 mg/m^2 (N=6)) of 1 h, a Vd ([2]; 1.2 mg/m^2, Vss, Schedule 2, Cycle 1 Day 1, 1.2 mg/m^2 (N=6)) of 363 L and a Vd ([2]; 1.2 mg/m^2, Vss, Schedule 2, Cycle 1 Day 5, 1.2 mg/m^2 (N=6)) of 239 L. For the same compound, the half-life ([2]; 1.2 mg/m^2, t1/2, Schedule 2, Cycle 1 Day 1, 1.2 mg/m^2 (N=6)) was 25.6 h, the half-life ([2]; 1.2 mg/m^2, t1/2, Schedule 2, Cycle 1 Day 5, 1.2 mg/m^2 (N=6)) was 94.9 h and the AUC(0-t) ([2]; 1.5 mg/m^2, AUC0–24, Schedule 2, Cycle 1 Day 1, 1.5 mg/m^2 (N=6), geometric mean (geometric %CV)) was 264 ng·h/mL. For the same compound, the AUC(0-t) ([2]; 1.5 mg/m^2, AUC0–24, Schedule 2, Cycle 1 Day 5, 1.5 mg/m^2 (N=6), geometric mean (geometric %CV)) was 667 ng·h/mL, the clearance ([2]; 1.5 mg/m^2, CL, Schedule 2, Cycle 1 Day 1, 1.5 mg/m^2 (N=6), geometric mean (geometric %CV)) was 98.3 mL/min and the clearance ([2]; 1.5 mg/m^2, CL, Schedule 2, Cycle 1 Day 5, 1.5 mg/m^2 (N=6), geometric mean (geometric %CV)) was 18.5 mL/min. It also gave a Cmax ([2]; 1.5 mg/m^2, Cmax, Schedule 2, Cycle 1 Day 1, 1.5 mg/m^2 (N=6), geometric mean (geometric %CV)) of 57.9 ng/mL, a Cmax ([2]; 1.5 mg/m^2, Cmax, Schedule 2, Cycle 1 Day 5, 1.5 mg/m^2 (N=6), geometric mean (geometric %CV)) of 134 ng/mL and an MRT ([2]; 1.5 mg/m^2, MRT, Schedule 2, Cycle 1 Day 5, 1.5 mg/m^2 (N=6)) of 119 h. The Tmax ([2]; 1.5 mg/m^2, Tmax, Schedule 2, Cycle 1 Day 1, 1.5 mg/m^2 (N=6)) was 1 h, the Tmax ([2]; 1.5 mg/m^2, Tmax, Schedule 2, Cycle 1 Day 5, 1.5 mg/m^2 (N=6)) was 1.02 h and the Vd ([2]; 1.5 mg/m^2, Vss, Schedule 2, Cycle 1 Day 1, 1.5 mg/m^2 (N=6)) was 251 L. For the same compound, the Vd ([2]; 1.5 mg/m^2, Vss, Schedule 2, Cycle 1 Day 5, 1.5 mg/m^2 (N=6)) was 169 L, the half-life ([2]; 1.5 mg/m^2, t1/2, Schedule 2, Cycle 1 Day 1, 1.5 mg/m^2 (N=6)) was 26.1 h and the half-life ([2]; 1.5 mg/m^2, t1/2, Schedule 2, Cycle 1 Day 5, 1.5 mg/m^2 (N=6)) was 82.2 h. It also gave an AUC(0-t) ([2]; 1.8 mg/m^2, AUC0–24, Schedule 2, Cycle 1 Day 1, 1.8 mg/m^2 (N=2), geometric mean) of 208 ng·h/mL, an AUC(0-t) ([2]; 1.8 mg/m^2, AUC0–24, Schedule 2, Cycle 1 Day 5, 1.8 mg/m^2 (N=2), geometric mean) of 608 ng·h/mL and a clearance ([2]; 1.8 mg/m^2, CL, Schedule 2, Cycle 1 Day 1, 1.8 mg/m^2 (N=2), geometric mean) of 130 mL/min. The clearance ([2]; 1.8 mg/m^2, CL, Schedule 2, Cycle 1 Day 5, 1.8 mg/m^2 (N=2), geometric mean) was 18.3 mL/min, the Cmax ([2]; 1.8 mg/m^2, Cmax, Schedule 2, Cycle 1 Day 1, 1.8 mg/m^2 (N=2), geometric mean) was 24.4 ng/mL and the Cmax ([2]; 1.8 mg/m^2, Cmax, Schedule 2, Cycle 1 Day 5, 1.8 mg/m^2 (N=2), geometric mean) was 53.6 ng/mL. The MRT ([2]; 1.8 mg/m^2, MRT, Schedule 2, Cycle 1 Day 5, 1.8 mg/m^2 (N=2)) was 114 h and the Tmax ([2]; 1.8 mg/m^2, Tmax, Schedule 2, Cycle 1 Day 1, 1.8 mg/m^2 (N=2)) was 1 h.
